Experimental data reported in patent US8192962B2, “Processes for detecting toxic substances” (Daikin Industries, Ltd., priority 2001, dated 2012).

Tested on: Stress protein genes
Assay: DNA chip mRNA expression in yeast, stress protein genes (Table 6)
Type: cell-based, Saccharomyces cerevisiae S288C
Outline: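 First, S288C yeast grown in YPD at 25° C. are dosed in log phase with one toxicant (growth-inhibiting, not lethal) for 2 h. Next, total RNA is extracted and poly(A) mRNA isolated and reverse-transcribed with Cy3/Cy5-dUTP. Finally, whole-genome chip fluorescence is read relative to unexposed cells.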

Measured: The level of expressed mRNA in the presence of chemical substance/The level of expressed mRNA in the absence of chemical substance

manganese ethylenebis(dithiocarbamate) [(8)]
2.3: yeast gene YMR173W
1.3: yeast gene YIR037W | yeast gene YIR038C | yeast gene YML070W | yeast gene YMR021C | yeast gene YPL194W
0.9: yeast gene YAL005C | yeast gene YBR169C | yeast gene YDR436W | yeast gene YER103W | yeast gene YJL128C | yeast gene YKL210W | yeast gene YKR053C | yeast gene YLR006C | yeast gene YLR109W | yeast gene YNL241C | yeast gene YOR027W
0.8: yeast gene YBL075C | yeast gene YCR021C | yeast gene YDL022W | yeast gene YDR077W | yeast gene YGL073W | yeast gene YGR088W | yeast gene YJL159W | yeast gene YJR045C | yeast gene YJR090C | yeast gene YKL163W | yeast gene YKL164C | yeast gene YLR259C | yeast gene YMR186W | yeast gene YOL161C | yeast gene YOR008C
1.4: yeast gene YCL035C | yeast gene YDR155C | yeast gene YDR519W | yeast gene YLL026W | yeast gene YNL064C | yeast gene YPL059W
2.1: yeast gene YBR054W | yeast gene YBR072W
5.8: yeast gene YLL060C
0.6: yeast gene YBR126C | yeast gene YDR293C
1.9: yeast gene YDR258C | yeast gene YKL161C | yeast gene YML007W
0.7: yeast gene YEL030W | yeast gene YER125W | yeast gene YFL016C | yeast gene YFL020C | yeast gene YIL011W | yeast gene YIL033C | yeast gene YJL158C | yeast gene YJL165C | yeast gene YLL024C | yeast gene YOR009W
1.7: yeast gene YER042W
1.1: yeast gene YAL015C | yeast gene YBR044C | yeast gene YBR067C | yeast gene YDL025C | yeast gene YEL039C | yeast gene YHR104W | yeast gene YLL039C | yeast gene YPL140C
0.4: yeast gene YHL028W
3.4: yeast gene YFL014W
1.0: yeast gene YDR033W | yeast gene YER057C | yeast gene YGL115W | yeast gene YHL046C | yeast gene YHR057C | yeast gene YNR076W | yeast gene YOL064C | yeast gene YOR208W | yeast gene YPR026W
1.2: yeast gene YCR060W | yeast gene YDR098C | yeast gene YGL181W | yeast gene YNL160W | yeast gene YPL106C | yeast gene YPL223C | yeast gene YPL240C | yeast gene YPR005C
1.5: yeast gene YCR083W | yeast gene YFR052W | yeast gene YHR030C
1.6: yeast gene YBL093C | yeast gene YDR513W
0.5: yeast gene YOR010C
